Reference: EPA's ToxRefDB 2

Experiments:
mouse [1] = settings: Subchronic oral toxicity in rodents, cd1, Feed, dose end: 13 week, group: systemic, systemic / in life observation / body weight / body weight gain + systemic / organ weight / liver / absolute + systemic / organ weight / …
rat [2] = settings: Subchronic oral toxicity in rodents, wistar, Feed, dose end: 13 week, group: systemic
rabbit [3] = settings: Prenatal developmental toxicity study, new zealand white, Oral, Gavage/Intubation, dose end: 18 GD
rat [4] = settings: Sub-acute repeat dose toxicity; wistar; Oral; Feed; dose end: 4 week; group: systemic; systemic / clinical chemistry / lactic acid dehydrogenase (ldh) / lactic acid dehydrogenase (ldh) + systemic / organ weight / liver / …
rat [5] = settings: Sub-acute repeat dose toxicity, wistar, Oral, Feed, dose end: 4 week, group: systemic
rat [6] = settings: Subchronic oral toxicity in rodents, wistar, Feed, dose end: 13 week, group: systemic; remark: listed apart in the source
rat [7] = settings: Subchronic oral toxicity in rodents, wistar, Feed, dose end: 13 week, group: systemic, systemic / clinical chemistry / calcium / calcium + systemic / clinical chemistry / creatinine / creatinine + systemic / clinical chemistry…
mouse [8] = settings: Carcinogenicity; cd1; Oral; Feed; dose end: 88 week; group: systemic; systemic / pathology microscopic / liver / hypertrophy + systemic / pathology microscopic / liver / inflammation + systemic / pathology …
rat [9] = settings: Sub-acute dermal toxicity, wistar, Topical, dose end: 28 day, group: systemic, systemic / clinical chemistry / cholesterol / cholesterol + systemic / clinical chemistry / globulins / globulins + systemic / clinical …
rabbit [10] = settings: Sub-acute dermal toxicity, new zealand white, Topical, dose end: 21 day, group: systemic, systemic / in life observation / clinical signs / desquamation + systemic / in life observation / clinical signs / erythema + systemic / …
dog [11] = settings: Subchronic oral toxicity in nonrodent, beagle, Feed, dose end: 13 week, group: systemic, systemic / clinical chemistry / alkaline phosphatase (alp/alk) / alkaline phosphatase (alp/alk) + systemic / clinical chemistry / gamma …
dog [12] = settings: Chronic toxicity; beagle; Oral; Feed; dose end: 52 week; group: systemic; systemic / clinical chemistry / cytochrome p450, nos / cytochrome p450, nos + systemic / clinical chemistry / glutathione-s-transferase / …
rabbit [13] = settings: Prenatal developmental toxicity study, new zealand white, Oral, Gavage/Intubation, dose end: 18 GD; remark: listed apart in the source
rat [14] = settings: Prenatal developmental toxicity study, wistar, Oral, Gavage/Intubation, dose end: 15 GD
mouse [15] = settings: Multigenerational reproductive toxicity study, Other, Oral, Feed, dose end: 90 day
rat [16] = settings: Combined chronic toxicity/carcinogenicity, fischer, Oral, Feed, dose end: 2 year, group: systemic
mouse [17] = settings: Reproduction/developmental toxicity screening test, other, Injection, Subcutaneous, dose end: 1 PND
mouse [18] = settings: Carcinogenicity; other; Oral; Water; dose end: 18 week; group: systemic; systemic / pathology microscopic / lung / mixed tumor nos
mouse [19] = settings: Subchronic oral toxicity in rodents, BALB/c, Water, dose end: 141 day, group: systemic, systemic / pathology microscopic / liver / hemangioma + systemic / pathology microscopic / liver / hemangiosarcoma + systemic / pathology …
[20] = systemic / in life observation / body weight / body weight gain + systemic / clinical chemistry / alanine aminotransferase (alt/sgpt) / …
[21] = group: developmental, developmental / developmental malformation / general / [other] + developmental / developmental malformation / limb / malrotated
[22] = group: maternal, systemic / in life observation / body weight / body weight gain
[23] = group: maternal, systemic / in life observation / body weight / body weight gain + systemic / in life observation / food consumption / food consumption
[24] = systemic / pathology microscopic / liver / lipid deposition + systemic / pathology microscopic / liver / vacuolization
[25] = systemic / pathology microscopic / liver / lipid deposition + systemic / pathology microscopic / liver / vacuolization + systemic / clinical…
[26] = systemic / pathology microscopic / thyroid gland / hypertrophy
[27] = group: developmental, systemic / in life observation / body weight / fetal weight + developmental / developmental malformation / bone / [other] + developmental / …
[28] = group: maternal, reproductive / reproductive performance / postimplantation loss / postimplantation loss + systemic / in life observation / body weight / …
[29] = group: developmental, developmental / developmental malformation / bone / full supernumerary
[30] = group: developmental, developmental / developmental malformation / bone / full supernumerary + developmental / developmental malformation / bone / incomplete …
[31] = group: maternal, systemic / in life observation / body weight / body weight gain + reproductive / reproductive performance / postimplantation loss / …
[32] = group: parental, systemic / in life observation / mortality / mortality
[33] = group: reproductive, reproductive / reproductive performance / fertility / fertility + reproductive / reproductive performance / mating / mating + reproductive…
[34] = systemic / pathology microscopic / kidney / nephropathy + systemic / pathology microscopic / liver / cytomegaly + systemic / pathology …
[35] = systemic / pathology microscopic / liver / cytomegaly + systemic / in life observation / food consumption / food consumption
[36] = group: developmental, developmental / offspring survival late / [other] / [other]
[37] = group: maternal, reproductive / offspring survival early / dead fetuses / dead fetuses
[38] = group: offspring, systemic / pathology microscopic / liver / [other] + systemic / pathology gross / full gross necropsy / hemangiosarcoma
[39] = group: offspring, systemic / pathology microscopic / liver / [other] + systemic / pathology microscopic / liver / hemangioma + systemic / pathology …

## CC(C1CC1)C(O)(Cn1cncn1)c1ccc(Cl)cc1 (stereo not given) [Cyproconazole]
Mouse [1]
  LEL: 43.8 mg/kg/day
  LOAEL: 43.8 mg/kg/day
  NEL: 2.2 mg/kg/day
  NOAEL: 2.2 mg/kg/day
Rat [2]; systemic / in life observation / body weight / body weight gain
  LOAEL: 27.3 mg/kg/day
Rat [2]; [20]
  NEL: 1.5 mg/kg/day
  NOAEL: 1.5 mg/kg/day
Rat [2]; systemic / in life observation / body weight / body weight gain + systemic / in life observation / food consumption / food efficiency + …
  LEL: 27.3 mg/kg/day
Rabbit [3]; group: developmental, developmental / developmental malformation / general / [other]
  LOAEL: 10 mg/kg/day
Rabbit [3]; [21]
  LEL: 10 mg/kg/day
  NEL: 2 mg/kg/day
  NOAEL: 2 mg/kg/day
Rabbit [3]; [22]
  LOAEL: 50 mg/kg/day
Rabbit [3]; [23]
  LEL: 50 mg/kg/day
  NEL: 10 mg/kg/day
  NOAEL: 10 mg/kg/day
Rat [4]
  LEL: 25.3 mg/kg/day
  LOAEL: 25.3 mg/kg/day
  NEL: 8.14 mg/kg/day
  NOAEL: 8.14 mg/kg/day
Rat [5]; [24]
  LEL: 527 mg/kg/day
  LOAEL: 527 mg/kg/day
Rat [5]; [25]
  NEL: 155 mg/kg/day
  NOAEL: 155 mg/kg/day
Rat [6]; systemic / organ weight / liver / absolute + systemic / organ weight / liver / relative to body weight + systemic / pathology microscopic / …
  LOAEL: 24.7 mg/kg/day
Rat [6]; [26]
  LEL: 1.4 mg/kg/day
  NEL: < 1.4 mg/kg/day
Rat [6]; systemic / pathology microscopic / thyroid gland / hypertrophy + systemic / organ weight / liver / absolute + systemic / organ weight / …
  NOAEL: 1.4 mg/kg/day
Rat [7]
  LEL: 1.5 mg/kg/day
  LOAEL: > 21.4 mg/kg/day
  NEL: < 1.5 mg/kg/day
  NOAEL: ≥ 21.4 mg/kg/day
Mouse [8]
  LEL: 13.2 mg/kg/day
  LOAEL: 13.2 mg/kg/day
  NEL: 1.84 mg/kg/day
  NOAEL: 1.84 mg/kg/day
Rat [9]
  LEL: 100 mg/kg/day
  LOAEL: 100 mg/kg/day
  NEL: 10 mg/kg/day
  NOAEL: 10 mg/kg/day
Rabbit [10]
  LEL: 1000 mg/kg/day
  LOAEL: 1000 mg/kg/day
  NEL: 300 mg/kg/day
  NOAEL: 300 mg/kg/day
Dog [11]
  LEL: 20 mg/kg/day
  LOAEL: 20 mg/kg/day
  NEL: 4 mg/kg/day
  NOAEL: 4 mg/kg/day
Dog [12]
  LEL: 3.2 mg/kg/day
  LOAEL: 3.2 mg/kg/day
  NEL: 1 mg/kg/day
  NOAEL: 1 mg/kg/day
Rabbit [13]; group: developmental, systemic / in life observation / body weight / fetal weight
  LOAEL: 60 mg/kg/day
Rabbit [13]; [27]
  LEL: 60 mg/kg/day
  NEL: 10 mg/kg/day
  NOAEL: 10 mg/kg/day
Rabbit [13]; [28]
  LEL: 60 mg/kg/day
  LOAEL: 60 mg/kg/day
  NEL: 10 mg/kg/day
  NOAEL: 10 mg/kg/day
Rat [14]; [29]
  LEL: 12 mg/kg/day
  LOAEL: 12 mg/kg/day
Rat [14]; [30]
  NEL: 6 mg/kg/day
  NOAEL: 6 mg/kg/day
Rat [14]; [22]
  LEL: 12 mg/kg/day
  LOAEL: 12 mg/kg/day
Rat [14]; [31]
  NEL: 6 mg/kg/day
  NOAEL: 6 mg/kg/day

## ClC1(Cl)C2(Cl)C3(Cl)C4(Cl)C(Cl)(Cl)C5(Cl)C3(Cl)C1(Cl)C5(Cl)C24Cl (stereo not given) [Mirex]
Mouse [15]; [32]
  LEL: 0.25 mg/kg/day
  LOAEL: > 0.25 mg/kg/day
  NEL: < 0.25 mg/kg/day
  NOAEL: ≥ 0.25 mg/kg/day
Mouse [15]; [33]
  LEL: 0.25 mg/kg/day
  LOAEL: > 0.25 mg/kg/day
  NEL: < 0.25 mg/kg/day
  NOAEL: ≥ 0.25 mg/kg/day
Rat [16]; [34]
  LOAEL: 1.95 mg/kg/day
  NOAEL: 0.75 mg/kg/day
Rat [16]; [35]
  LEL: 0.007 mg/kg/day
  NEL: < 0.007 mg/kg/day

## CN(C)N=O [N-Nitrosodimethylamine]
Mouse [17]; [36]
  LEL: 1 mg/kg/day
  LOAEL: > 50 mg/kg/day
  NEL: < 1 mg/kg/day
  NOAEL: ≥ 50 mg/kg/day
Mouse [17]; [37]
  LEL: 20 mg/kg/day
  LOAEL: > 50 mg/kg/day
  NEL: 10 mg/kg/day
  NOAEL: ≥ 50 mg/kg/day
Mouse [17]; [38]
  LEL: 1 mg/kg/day
  NEL: < 1 mg/kg/day
Mouse [17]; [39]
  LOAEL: > 50 mg/kg/day
  NOAEL: ≥ 50 mg/kg/day
Mouse [18]
  LEL: 0.0667 mg/kg/day
  LOAEL: > 0.0667 mg/kg/day
  NEL: < 0.0667 mg/kg/day
  NOAEL: ≥ 0.0667 mg/kg/day
Mouse [19]
  LEL: 1.33 mg/kg/day
  LOAEL: > 1.33 mg/kg/day
  NEL: < 1.33 mg/kg/day
  NOAEL: ≥ 1.33 mg/kg/day
